Data from article PMC4864329, “In vitro and in vivo efficacy, toxicity, bio-distribution and resistance selection of a novel antibacterial drug candidate” (Scientific Reports, 2016).
Values joined by “and” are separate entries in the source; they are usually repeats but may differ in a detail not shown here. Equal entries are not always repeated. Where two headings read alike, the source gives them in different places.

Tested on: Klebsiella pneumoniae clinical isolates
Type: cell-based
Description: Minimum inhibitory concentrations (MICs) of SET-M33L were determined against 76 clinical isolates of Pseudomonas aeruginosa and 73 clinical isolates of Klebsiella pneumoniae. The isolates were selected on the basis of their resistance phenotypes and major antibiotic resistance determinants, including resistance to colistin and carriage of carbapenemase-encoding genes (Table 1 and supplemental Tables S1 and S2).
MIC values were determined against a large collection of clinical isolates. Most isolates were collected during routine susceptibility testing procedures at the Clinical Microbiology Unit of Careggi University Hospital in Florence, while specific isolates were selected according to their phenotype or genotype (e.g. carriage of carbapenemase-encoding genes, inclusion in epidemic bacterial clones, resistance to colistin) from a collection of isolates already available at Department of Medical Biotechnologies, University of Siena. Detailed features of each strain, including relevant resistance phenotypes and genotypes were reported in supplemental Tables S1 and S2. MICs were determined in triplicate using a standard microdilution assay according to the guidelines of the Clinical and Laboratory Standards Institute[34]. SET-M33L was assayed using concentrations in the range 0.09–11.2 μM (0.5–64 μg/mL); testing was performed using a bacterial inoculum of 5 × 10^4 CFU/well prepared in cation-supplemented Mueller-Hinton broth (MHB) (Becton Dickinson, Franklin Lakes, NJ, USA) in a final volume of 100 μl. Results were recorded after 18–20 h of incubation at 35 °C.

Question: Which MIC (isolate SI_K1, CARB, β/I, ESC, FQ, AG, COL, blaNDM) does the source give for colistin sulfate here?
Answer: 32 µg/mL

Question: What about the MIC (isolate SI_K2, CARB, ESC, FQ, AG, blaCTX-M) of the same substance?
Answer: ≤ 0.5 µg/mL

Question: And the MIC (isolate SI_K3, CARB, β/I, ESC, AG, blaVIM)?
Answer: 0.5 µg/mL

Question: What about the MIC (isolate SI_K4, CARB, β/I, ESC, FQ, blaOXA-48) of the same substance?
Answer: 0.5 µg/mL

Question: What about the MIC (isolate SI_K5, CARB, β/I, ESC, FQ, blaOXA-48) of the same substance?
Answer: 0.5 µg/mL

Question: What about the MIC (isolate SI_K6, CARB, β/I, ESC, FQ, AG, blaKPC) of the same substance?
Answer: 0.5 µg/mL

Question: What about the MIC (isolate SI_K7, CARB, β/I, ESC, FQ, blaKPC) of the same substance?
Answer: 0.5 µg/mL

Question: And the MIC (isolate SI_K8, CARB, β/I, ESC, FQ, AG, blaKPC)?
Answer: ≤ 0.5 µg/mL

Question: And the MIC (isolate SI_K9, CARB, β/I, ESC, FQ, AG, blaKPC)?
Answer: 2 µg/mL

Question: And the MIC (isolate SI_K10, CARB, β/I, ESC, FQ, COL, blaKPC)?
Answer: > 32 µg/mL

Question: What about the MIC (isolate SI_K11, CARB, β/I, ESC, FQ, AG, blaKPC) of the same substance?
Answer: ≤ 0.5 µg/mL

Question: What about the MIC (isolate SI_K12, phenotype none) of the same substance?
Answer: ≤ 0.5 µg/mL

Question: And the MIC (isolate SI_K13, β/I, ESC, FQ, AG, ESBL)?
Answer: ≤ 0.5 µg/mL

Question: And the MIC (isolate SI_K14, phenotype none)?
Answer: ≤ 0.5 µg/mL

Question: What about the MIC (isolate SI_K15, phenotype none) of the same substance?
Answer: ≤ 0.5 µg/mL

Question: What about the MIC (isolate SI_K16, phenotype none) of the same substance?
Answer: ≤ 0.5 µg/mL

Question: What about the MIC (isolate SI_K17, CARB, β/I, ESC, FQ, AG, COL, blaKPC) of the same substance?
Answer: > 32 µg/mL

Question: What about the MIC (isolate SI_K18, phenotype none) of the same substance?
Answer: ≤ 0.5 µg/mL

Question: And the MIC (isolate SI_K19, ESC, ESBL)?
Answer: ≤ 0.5 µg/mL

Question: What about the MIC (isolate SI_K20, phenotype none) of the same substance?
Answer: ≤ 0.5 µg/mL

Question: What about the MIC (isolate SI_K21, phenotype none) of the same substance?
Answer: ≤ 0.5 µg/mL

Question: What about the MIC (isolate SI_K22, phenotype none) of the same substance?
Answer: ≤ 0.5 µg/mL

Question: What about the MIC (isolate SI_K23, phenotype none) of the same substance?
Answer: ≤ 0.5 µg/mL

Question: What about the MIC (isolate SI_K24, phenotype none) of the same substance?
Answer: ≤ 0.5 µg/mL

Question: And the MIC (isolate SI_K25, phenotype none)?
Answer: ≤ 0.5 µg/mL

Question: What about the MIC (isolate SI_K26, phenotype none) of the same substance?
Answer: ≤ 0.5 µg/mL

Question: What about the MIC (isolate SI_K27, phenotype none) of the same substance?
Answer: ≤ 0.5 µg/mL

Question: And the MIC (isolate SI_K28, β/I, ESC, FQ, AG, ESBL)?
Answer: ≤ 0.5 µg/mL

Question: And the MIC (isolate SI_K29, ESC, AG, blaCTX-M)?
Answer: 0.5 µg/mL

Question: What about the MIC (isolate SI_K30, phenotype none) of the same substance?
Answer: ≤ 0.5 µg/mL

Question: And the MIC (isolate SI_K31, β/I, ESC, FQ, AG, COL, ESBL)?
Answer: 16 µg/mL

Question: What about the MIC (isolate SI_K32, phenotype none) of the same substance?
Answer: ≤ 0.5 µg/mL

Question: And the MIC (isolate SI_K33, phenotype none)?
Answer: ≤ 0.5 µg/mL

Question: And the MIC (isolate SI_K34, phenotype none)?
Answer: ≤ 0.5 µg/mL

Question: And the MIC (isolate SI_K35, CARB, β/I, ESC, FQ, AG, blaKPC)?
Answer: ≤ 0.5 µg/mL

Question: What about the MIC (isolate SI_K36, CARB, β/I, ESC, FQ, AG, COL, blaKPC) of the same substance?
Answer: > 32 µg/mL

Question: And the MIC (isolate SI_K37, phenotype none)?
Answer: ≤ 0.5 µg/mL

Question: And the MIC (isolate SI_K38, phenotype none)?
Answer: ≤ 0.5 µg/mL

Question: And the MIC (isolate SI_K39, phenotype none)?
Answer: ≤ 0.5 µg/mL

Question: And the MIC (isolate SI_K40, CARB, β/I, ESC, FQ, AG, COL, blaKPC)?
Answer: > 32 μg/mL and > 24 μM

Question: And the MIC (isolate SI_K41, β/I, ESC, FQ, AG, ESBL)?
Answer: ≤ 0.5 μg/mL and ≤ 0.4 μM

Question: What about the MIC (isolate SI_K42, phenotype none) of the same substance?
Answer: ≤ 0.5 μg/mL and ≤ 0.4 μM

Question: What about the MIC (isolate SI_K43, phenotype none) of the same substance?
Answer: ≤ 0.5 μg/mL and ≤ 0.4 μM

Question: What about the MIC (isolate SI_K44, phenotype none) of the same substance?
Answer: ≤ 0.4 μM and ≤ 0.5 μg/mL

Question: And the MIC (isolate SI_K45, FQ)?
Answer: ≤ 0.5 μg/mL and ≤ 0.4 μM

Question: And the MIC (isolate SI_K46, β/I)?
Answer: ≤ 0.5 μg/mL and ≤ 0.4 μM

Question: And the MIC (isolate SI_K47, phenotype none)?
Answer: ≤ 0.5 μg/mL and ≤ 0.4 μM

Question: And the MIC (isolate SI_K48, phenotype none)?
Answer: ≤ 0.5 μg/mL and ≤ 0.4 μM

Question: What about the MIC (isolate SI_K49, phenotype none) of the same substance?
Answer: ≤ 0.5 μg/mL and ≤ 0.4 μM

Question: And the MIC (isolate SI_K50, phenotype none)?
Answer: ≤ 0.5 μg/mL and ≤ 0.4 μM

Question: What about the MIC (isolate SI_K51, phenotype none) of the same substance?
Answer: ≤ 0.5 μg/mL and ≤ 0.4 μM

Question: What about the MIC (isolate SI_K52, phenotype none) of the same substance?
Answer: ≤ 0.5 μg/mL and ≤ 0.4 μM

Question: And the MIC (isolate SI_K53, β/I, ESC, FQ, ESBL)?
Answer: ≤ 0.5 μg/mL and ≤ 0.4 μM

Question: And the MIC (isolate SI_K54, phenotype none)?
Answer: ≤ 0.5 μg/mL and ≤ 0.4 μM

Question: What about the MIC (isolate SI_K55, β/I, ESC, FQ, AG, ESBL) of the same substance?
Answer: ≤ 0.5 μg/mL and ≤ 0.4 μM

Question: And the MIC (isolate SI_K56, phenotype none)?
Answer: ≤ 0.5 μg/mL and ≤ 0.4 μM

Question: And the MIC (isolate SI_K57, β/I, FQ)?
Answer: ≤ 0.5 μg/mL and ≤ 0.4 μM

Question: And the MIC (isolate SI_K58, phenotype none)?
Answer: ≤ 0.5 μg/mL and ≤ 0.4 μM

Question: What about the MIC (isolate SI_K59, phenotype none) of the same substance?
Answer: ≤ 0.5 μg/mL and ≤ 0.4 μM

Question: What about the MIC (isolate SI_K60, phenotype none) of the same substance?
Answer: ≤ 0.5 μg/mL and ≤ 0.4 μM

Question: And the MIC (isolate SI_K61, CARB, β/I, ESC, FQ)?
Answer: ≤ 0.5 μg/mL and ≤ 0.4 μM

Question: And the MIC (isolate SI_K62, CARB, β/I, ESC, FQ, AG, ESBL)?
Answer: ≤ 0.5 μg/mL and ≤ 0.4 μM

Question: What about the MIC (isolate SI_K63, β/I, ESC, FQ, AG, ESBL) of the same substance?
Answer: ≤ 0.5 μg/mL and ≤ 0.4 μM

Question: And the MIC (isolate SI_K64, phenotype none)?
Answer: ≤ 0.5 μg/mL and ≤ 0.4 μM

Question: And the MIC (isolate SI_K65, phenotype none)?
Answer: ≤ 0.5 μg/mL and ≤ 0.4 μM

Question: What about the MIC (isolate SI_K66, β/I, ESC, FQ, AG, ESBL) of the same substance?
Answer: ≤ 0.5 μg/mL and ≤ 0.4 μM

Question: What about the MIC (isolate SI_K67, β/I, ESC, FQ, AG, ESBL) of the same substance?
Answer: ≤ 0.5 μg/mL and ≤ 0.4 μM

Question: And the MIC (isolate SI_K68, phenotype none)?
Answer: ≤ 0.5 μg/mL and ≤ 0.4 μM

Question: And the MIC (isolate SI_K69, β/I, ESC, FQ, AG, ESBL)?
Answer: ≤ 0.5 μg/mL and ≤ 0.4 μM

Question: What about the MIC (isolate SI_K70, β/I, ESC, FQ) of the same substance?
Answer: ≤ 0.5 μg/mL and ≤ 0.4 μM

Question: What about the MIC (isolate SI_K71, CARB, β/I, ESC, FQ, blaKPC) of the same substance?
Answer: ≤ 0.5 μg/mL and ≤ 0.4 μM

Question: What about the MIC (isolate SI_K72, CARB, β/I, ESC, FQ, AG, COL, blaNDM) of the same substance?
Answer: > 32 μg/mL and > 24 μM

Question: What about the MIC (isolate SI_K73, CARB, ESC, FQ, AG, blaCTX-M) of the same substance?
Answer: ≤ 0.5 μg/mL and ≤ 0.4 μM
